# Experimental data taken from PubChem BioAssay (NCI).
# Several values for one entry are separate records, joined by “and”; a condition that tells them apart may be missing. Equal values may be shown once.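 48-hour exposure; five concentrations; linearly interpolated endpoints. Here, GI50 denotes the concentration required for 50% inhibition of growth. TGI denotes the concentration required for complete inhibition of growth.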
# Tests used:
# Experiment in all cases: DTP human tumour cell line panel, 48 h
# DMS 114 small cell lung = system: DMS 114 small cell lung
# DMS 273 small cell lung = system: DMS 273 small cell lung
# KM20L2 colon = system: KM20L2 colon
# SNB-78 CNS = system: SNB-78 CNS
# MDA-MB-435 = system: MDA-MB-435
# HS 578T breast = system: HS 578T breast
# T-47D breast = system: T-47D breast
# MDA-N = system: MDA-N
# RXF-631 renal = system: RXF-631 renal
smiles,measurement,setting,value
N[C@H]1C2C3CC4C5CC(C42)C1(c1ccccc1)C53 (some centres undefined),TGI,DMS 114 small cell lung,> 100 µM
same,TGI,DMS 273 small cell lung,> 100 µM
same,TGI,KM20L2 colon,> 100 µM
same,TGI,SNB-78 CNS,> 100 µM
COc1cc2cc(Oc3ccc(NC(=O)Nc4cccc(C(F)(F)F)c4)cc3)c(C)nc2cc1OCCN1CCCCC1,GI50,MDA-MB-435,1.59 µM
same,TGI,MDA-MB-435,2.94 µM
N#Cc1ccccc1NC(=O)C(=O)C(C(=O)c1ccccc1-c1ccccc1)C1OC(=O)c2ccccc21 (centres undefined),TGI,DMS 114 small cell lung,41.6 µM
same,TGI,KM20L2 colon,40.8 µM
same,TGI,SNB-78 CNS,59.9 µM
Nc1cccc2c1C(=O)N(C1CCC(=O)NC1=O)C2=O (centres undefined),GI50,HS 578T breast,> 100 µM
same,TGI,HS 578T breast,> 100 µM
same,GI50,MDA-MB-435,> 100 µM
same,TGI,MDA-MB-435,> 100 µM
same,GI50,T-47D breast,> 100 µM
same,TGI,T-47D breast,> 100 µM
CCOC(=O)c1cnc(SCc2ccc(Cl)c(Cl)c2)nc1N1CC1,GI50,HS 578T breast,2.31 µM
same,TGI,HS 578T breast,7.01 µM
same,GI50,MDA-MB-435,1.97 µM
same,TGI,MDA-MB-435,11.4 µM
same,GI50,T-47D breast,3.15 µM
same,TGI,T-47D breast,19.5 µM
COc1ccc(/C(=C/c2cc(OC)c(OC)c(OC)c2)[N+](=O)[O-])cc1,GI50,HS 578T breast,3.21 µM
same,TGI,HS 578T breast,21.4 µM
same,GI50,MDA-MB-435,1.81 µM
same,TGI,MDA-MB-435,3.99 µM
same,GI50,T-47D breast,1.65 µM
same,TGI,T-47D breast,10.3 µM
COc1cc2c3c(n(C)c(=O)c2cc1OC)-c1cc2c(cc1/C3=C\CCCCN)OCO2,GI50,MDA-MB-435,5.56 µM
same,TGI,MDA-MB-435,20.3 µM
same,GI50,T-47D breast,37.7 µM
same,TGI,T-47D breast,> 100 µM
CC1(C)CC(=O)C2=C(C1)NC(SSC1=C(C#N)C(c3ccccc3)C3=C(CC(C)(C)CC3=O)N1)=C(C#N)C2c1ccccc1 (centres undefined),GI50,HS 578T breast,30.5 mg/L
same,TGI,HS 578T breast,68.1 mg/L
same,GI50,MDA-MB-435,25.7 mg/L
same,TGI,MDA-MB-435,49.9 mg/L
same,GI50,MDA-N,21 mg/L
same,TGI,MDA-N,40.4 mg/L
same,GI50,T-47D breast,30.7 mg/L
same,TGI,T-47D breast,62.4 mg/L
O=C1C2CC(Cl)C(SSC3CC4C(=O)N(SC(Cl)(Cl)C(Cl)Cl)C(=O)C4CC3Cl)CC2C(=O)N1SC(Cl)(Cl)C(Cl)Cl (centres undefined),TGI,HS 578T breast,> 22.8 µM
same,TGI,MDA-MB-435,6.23 µM
same,TGI,MDA-N,6.71 µM
same,TGI,T-47D breast,7.18 µM
Cc1ccc(S(=O)(=O)NC(CCC(=O)Nc2ccc(Cl)cc2)C(=O)Nc2ccc(Cl)cc2)cc1 (centres undefined),GI50,HS 578T breast,1.32 µM
same,TGI,HS 578T breast,7.5 µM
same,GI50,MDA-MB-435,0.169 µM
same,TGI,MDA-MB-435,9.74 µM
same,GI50,T-47D breast,0.151 µM
same,TGI,T-47D breast,2.64 µM
COc1cc2c(cc1OC)C(=O)C(Br)CC2 (centres undefined),GI50,HS 578T breast,7.48 µM
same,TGI,HS 578T breast,37.4 µM
same,GI50,MDA-MB-435,2.87 µM
same,TGI,MDA-MB-435,10.4 µM
same,GI50,T-47D breast,2.25 µM
same,TGI,T-47D breast,5.06 µM
COc1cccc(NC(=O)c2sc3nc4c(cc3c2N)CCCC4)c1,GI50,HS 578T breast,0.75 µM
same,TGI,HS 578T breast,54.6 µM
same,GI50,MDA-MB-435,0.15 µM
same,TGI,MDA-MB-435,0.44 µM
same,GI50,T-47D breast,0.529 µM
same,TGI,T-47D breast,> 100 µM
COc1cc(CCc2cc(NC(=O)c3ccc(N4C[C@@H](C)N[C@@H](C)C4)cc3)n[nH]2)cc(OC)c1,GI50,HS 578T breast,1.12 µM and 2.44 µM
same,TGI,HS 578T breast,> 10 µM and 14.4 µM
same,GI50,MDA-MB-435,6.15 µM and 3.48 µM
same,TGI,MDA-MB-435,> 10 µM and 14.2 µM
same,GI50,T-47D breast,> 10 µM and 15.3 µM
same,TGI,T-47D breast,> 10 µM and 31.6 µM
CC1=C(C(=O)Nc2ccc([N+](=O)[O-])cc2)C(c2ccco2)C(C(=O)Nc2ccc([N+](=O)[O-])cc2)=C(C)N1,TGI,DMS 114 small cell lung,43.2 µM
same,TGI,KM20L2 colon,60 µM
same,TGI,RXF-631 renal,> 100 µM
same,TGI,SNB-78 CNS,78.8 µM
O=C(O)CN(c1ccc(Cl)cc1)S(=O)(=O)c1ccccc1,TGI,DMS 273 small cell lung,> 100 µM
same,TGI,KM20L2 colon,> 100 µM
same,TGI,RXF-631 renal,> 100 µM
CC(Cc1ccc(Cl)cc1Cl)NO (centres undefined),TGI,HS 578T breast,> 100 µM
same,TGI,MDA-MB-435,> 100 µM
same,TGI,MDA-N,> 100 µM
same,TGI,T-47D breast,> 100 µM
CC12OC(C(=O)C13CC3)C1C(=O)c3ccccc3C(=O)C12 (centres undefined),GI50,HS 578T breast,22.6 µM
same,TGI,HS 578T breast,63.9 µM
same,GI50,MDA-MB-435,41.4 µM
same,TGI,MDA-MB-435,> 100 µM
same,GI50,T-47D breast,24.4 µM
same,TGI,T-47D breast,> 100 µM
COC1C=C(Nc2cccc(Cl)c2)C(=O)C1 (centres undefined),TGI,DMS 114 small cell lung,> 100 µM
same,TGI,DMS 273 small cell lung,> 100 µM
same,TGI,KM20L2 colon,> 100 µM
same,TGI,SNB-78 CNS,> 100 µM
O=[N+]([O-])c1ccc(Sc2ncccn2)c([N+](=O)[O-])c1,GI50,HS 578T breast,3.83 µM
same,TGI,HS 578T breast,18 µM
same,GI50,MDA-MB-435,3.16 µM
same,TGI,MDA-MB-435,13.3 µM
same,GI50,T-47D breast,3.01 µM
same,TGI,T-47D breast,15 µM
COc1ccc(-c2cc(-c3ccc(Nc4nc(Nc5ccc(Cl)cc5)nc(Nc5ccc(Cl)cc5)n4)cc3)nc(N)c2C#N)cc1,GI50,HS 578T breast,1.48 µM
same,TGI,HS 578T breast,5.68 µM
same,GI50,MDA-MB-435,2.22 µM
same,TGI,MDA-MB-435,7.53 µM
same,GI50,T-47D breast,0.894 µM
same,TGI,T-47D breast,5.39 µM
COC(=O)Nc1nc2ccc(C(=O)c3ccc[nH]3)cc2[nH]1,TGI,HS 578T breast,> 100 µM
same,TGI,MDA-MB-435,0.359 µM
same,TGI,MDA-N,0.419 µM
same,TGI,T-47D breast,> 100 µM
O=C(c1cccs1)c1c(C(F)(F)F)n([O-])c2ccc(C(F)(F)F)cc2[n+]1=O,GI50,MDA-MB-435,0.564 µM
same,TGI,MDA-MB-435,1.19 µM
same,GI50,T-47D breast,0.51 µM
same,TGI,T-47D breast,1.43 µM
Cc1ccc2c(c1)NC(c1ccc(C(=O)O)cc1)c1cccn1-2 (centres undefined),TGI,MDA-MB-435,> 100 µM
same,TGI,MDA-N,> 100 µM
same,TGI,T-47D breast,49.2 µM
C1=CN2C[n+]3cccc(OCc4ccccc4)c3N=C2C(OCc2ccccc2)=C1,TGI,HS 578T breast,21.5 µM
same,TGI,MDA-MB-435,33.2 µM
same,TGI,T-47D breast,> 100 µM
O=C1C2=C(c3ccccc31)C(c1cccc(Cl)c1)NC(=S)N2 (centres undefined),TGI,DMS 114 small cell lung,> 100 µM
same,TGI,DMS 273 small cell lung,> 100 µM
same,TGI,KM20L2 colon,> 100 µM
O=[N+]([O-])c1ccc(N/N=C\c2cc(Cl)ccc2O)nc1,GI50,HS 578T breast,7.33 µM
same,TGI,HS 578T breast,> 100 µM
same,GI50,MDA-MB-435,1.76 µM
same,TGI,MDA-MB-435,> 100 µM
same,GI50,T-47D breast,2.86 µM
same,TGI,T-47D breast,> 100 µM
CCCCCCCCCCCCc1ccc(C(=O)/C=C/C(=O)O)cc1,GI50,HS 578T breast,7.61 µM
same,TGI,HS 578T breast,42.1 µM
same,GI50,MDA-MB-435,3.05 µM
same,TGI,MDA-MB-435,11.2 µM
same,GI50,T-47D breast,1.67 µM
same,TGI,T-47D breast,4.11 µM
Cn1cc(-c2ccc(=O)n(Cc3cccc(-c4ncc(OCCN5CCOCC5)cn4)c3)n2)cn1,GI50,HS 578T breast,> 100 µM
same,TGI,HS 578T breast,> 100 µM
same,GI50,MDA-MB-435,61.8 µM
same,TGI,MDA-MB-435,> 100 µM
same,GI50,T-47D breast,20.9 µM
same,TGI,T-47D breast,> 81.5 µM
COC(=O)c1cnc(=O)n(C2CC(O)C(CO)O2)c1 (centres undefined),GI50,HS 578T breast,> 100 µM
same,TGI,HS 578T breast,> 100 µM
same,GI50,MDA-MB-435,> 100 µM
same,TGI,MDA-MB-435,> 100 µM
same,GI50,T-47D breast,> 100 µM
same,TGI,T-47D breast,> 100 µM
Cc1ccc(S(=O)(=O)N/N=C/C(Br)=C(/Br)C(=O)O)cc1,TGI,HS 578T breast,45.2 µM
same,TGI,MDA-MB-435,18.3 µM
same,TGI,MDA-N,18.8 µM
same,TGI,T-47D breast,23.3 µM
NC(N)=NS(=O)(=O)c1ccc(NC(=O)c2cccc3c(Nc4ccc(S(=O)(=O)N=C(N)N)cc4)c4ccc(Cl)cc4nc23)cc1,TGI,DMS 114 small cell lung,> 100 µM
same,TGI,DMS 273 small cell lung,> 100 µM
same,TGI,KM20L2 colon,> 100 µM
same,TGI,SNB-78 CNS,> 100 µM
